Test results reported in the supplement of paper PMC10307832.

Tests used:
Assay in all cases: relative viability (nuclei count vs DMSO), 5 days (fraction); higher = more cells survive
CAL-12T = test system: CAL-12T
Summary of the method: (§1)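 The day after seeding in 1536-well plates, lung cancer cell lines were treated by pin tool with a single drug, or with a fixed anchor-drug dose together with five library-drug doses (not always all listed) in √10 steps. After 5 days, a combined fix-and-stain solution (final 0.05% Triton X-100, 1% formaldehyde, 1 ug/ml Hoechst) was added. Nuclei counted on 4× images gave relative viability as treated counts over vehicle counts, reported as the median of duplicate plates.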

NCI-H1666 = test system: NCI-H1666
Summary of the method: as §1

COR-L23 = test system: COR-L23
Summary of the method: as §1

NCI-H1437 = test system: NCI-H1437
Summary of the method: as §1

NCI-H460 = test system: NCI-H460
Summary of the method: as §1

PC-14 = test system: PC-14
Summary of the method: as §1

NCI-H1755 = test system: NCI-H1755
Summary of the method: as §1

NCI-H1792 = test system: NCI-H1792
Summary of the method: as §1

NCI-H1651 = test system: NCI-H1651
Summary of the method: as §1

NCI-H2170 = test system: NCI-H2170
Summary of the method: as §1

NCI-H520 = test system: NCI-H520
Summary of the method: as §1

LXF-289 = test system: LXF-289
Summary of the method: as §1

SK-MES-1 = test system: SK-MES-1
Summary of the method: as §1

HCC-44 = test system: HCC-44
Summary of the method: as §1

NCI-H1563 = test system: NCI-H1563
Summary of the method: as §1

BEN = test system: BEN
Summary of the method: as §1

NCI-H1650 = test system: NCI-H1650
Summary of the method: as §1

LU99A = test system: LU99A
Summary of the method: as §1

NCI-H1355 = test system: NCI-H1355
Summary of the method: as §1

NCI-H2087 = test system: NCI-H2087
Summary of the method: as §1

NCI-H1993 = test system: NCI-H1993
Summary of the method: as §1

NCI-H2085 = test system: NCI-H2085
Summary of the method: as §1

## Cc1csc(=NC2CCCCC2)n1/N=C/c1ccc(O)c(O)c1O [MIM1] + Nc1nc2[nH]cc(CCc3ccc(C(=O)N[C@@H](CCC(=O)O)C(=O)O)cc3)c2c(=O)[nH]1 [Pemetrexed] (partner 0.2 µM)
CAL-12T; first compound 0.2 µM
  relative viability: 1.25
CAL-12T; first compound 0.6325 µM
  relative viability: 1.07
CAL-12T; first compound 2 µM
  relative viability: 1.04
CAL-12T; first compound 6.325 µM
  relative viability: 0.847
CAL-12T; first compound 20 µM
  relative viability: 0.925
NCI-H1666; first compound 0.2 µM
  relative viability: 0.853
NCI-H1666; first compound 0.6325 µM
  relative viability: 0.848
NCI-H1666; first compound 2 µM
  relative viability: 0.826
NCI-H1666; first compound 6.325 µM
  relative viability: 0.666
NCI-H1666; first compound 20 µM
  relative viability: 0.627
COR-L23; first compound 0.2 µM
  relative viability: 0.208
COR-L23; first compound 0.6325 µM
  relative viability: 0.194
COR-L23; first compound 2 µM
  relative viability: 0.191
COR-L23; first compound 6.325 µM
  relative viability: 0.19
COR-L23; first compound 20 µM
  relative viability: 0.198
NCI-H1437; first compound 0.2 µM
  relative viability: 0.29
NCI-H1437; first compound 0.6325 µM
  relative viability: 0.317
NCI-H1437; first compound 2 µM
  relative viability: 0.348
NCI-H1437; first compound 6.325 µM
  relative viability: 0.235
NCI-H1437; first compound 20 µM
  relative viability: 0.154
NCI-H460; first compound 0.2 µM
  relative viability: 0.0717
NCI-H460; first compound 0.6325 µM
  relative viability: 0.0675
NCI-H460; first compound 2 µM
  relative viability: 0.0683
NCI-H460; first compound 6.325 µM
  relative viability: 0.0681
NCI-H460; first compound 20 µM
  relative viability: 0.0657
PC-14; first compound 0.2 µM
  relative viability: 0.137
PC-14; first compound 0.6325 µM
  relative viability: 0.124
PC-14; first compound 2 µM
  relative viability: 0.151
PC-14; first compound 6.325 µM
  relative viability: 0.156
PC-14; first compound 20 µM
  relative viability: 0.111
NCI-H1755; first compound 0.2 µM
  relative viability: 0.377
NCI-H1755; first compound 0.6325 µM
  relative viability: 0.419
NCI-H1755; first compound 2 µM
  relative viability: 0.41
NCI-H1755; first compound 6.325 µM
  relative viability: 0.41
NCI-H1755; first compound 20 µM
  relative viability: 0.269
NCI-H1792; first compound 0.2 µM
  relative viability: 0.682
NCI-H1792; first compound 0.6325 µM
  relative viability: 0.644
NCI-H1792; first compound 2 µM
  relative viability: 1.02
NCI-H1792; first compound 6.325 µM
  relative viability: 0.716
NCI-H1792; first compound 20 µM
  relative viability: 0.685
NCI-H1651; first compound 0.2 µM
  relative viability: 0.57
NCI-H1651; first compound 0.6325 µM
  relative viability: 0.443
NCI-H1651; first compound 2 µM
  relative viability: 0.564
NCI-H1651; first compound 6.325 µM
  relative viability: 0.476
NCI-H1651; first compound 20 µM
  relative viability: 0.558
NCI-H2170; first compound 0.2 µM
  relative viability: 0.265
NCI-H2170; first compound 0.6325 µM
  relative viability: 0.252
NCI-H2170; first compound 2 µM
  relative viability: 0.247
NCI-H2170; first compound 6.325 µM
  relative viability: 0.254
NCI-H2170; first compound 20 µM
  relative viability: 0.215
NCI-H520; first compound 0.2 µM
  relative viability: 0.693
NCI-H520; first compound 0.6325 µM
  relative viability: 0.722
NCI-H520; first compound 2 µM
  relative viability: 0.752
NCI-H520; first compound 6.325 µM
  relative viability: 0.547
NCI-H520; first compound 20 µM
  relative viability: 0.306
LXF-289; first compound 0.2 µM
  relative viability: 0.9
LXF-289; first compound 0.6325 µM
  relative viability: 0.737
LXF-289; first compound 2 µM
  relative viability: 0.891
LXF-289; first compound 6.325 µM
  relative viability: 0.715
LXF-289; first compound 20 µM
  relative viability: 0.453
SK-MES-1; first compound 0.2 µM
  relative viability: 0.962
SK-MES-1; first compound 0.6325 µM
  relative viability: 0.907
SK-MES-1; first compound 2 µM
  relative viability: 0.796
SK-MES-1; first compound 6.325 µM
  relative viability: 0.56
SK-MES-1; first compound 20 µM
  relative viability: 0.298
HCC-44; first compound 0.2 µM
  relative viability: 0.689
HCC-44; first compound 0.6325 µM
  relative viability: 0.566
HCC-44; first compound 2 µM
  relative viability: 0.601
HCC-44; first compound 6.325 µM
  relative viability: 0.468
HCC-44; first compound 20 µM
  relative viability: 0.401
NCI-H1563; first compound 0.2 µM
  relative viability: 0.883
NCI-H1563; first compound 0.6325 µM
  relative viability: 0.905
NCI-H1563; first compound 2 µM
  relative viability: 0.651
NCI-H1563; first compound 6.325 µM
  relative viability: 0.786
NCI-H1563; first compound 20 µM
  relative viability: 0.481
BEN; first compound 0.2 µM
  relative viability: 0.792
BEN; first compound 0.6325 µM
  relative viability: 0.751
BEN; first compound 2 µM
  relative viability: 0.705
BEN; first compound 6.325 µM
  relative viability: 0.709
BEN; first compound 20 µM
  relative viability: 0.34
NCI-H1650; first compound 0.2 µM
  relative viability: 0.341
NCI-H1650; first compound 0.6325 µM
  relative viability: 0.393
NCI-H1650; first compound 2 µM
  relative viability: 0.363
NCI-H1650; first compound 6.325 µM
  relative viability: 0.191
NCI-H1650; first compound 20 µM
  relative viability: 0.202
LU99A; first compound 0.2 µM
  relative viability: 0.178
LU99A; first compound 0.6325 µM
  relative viability: 0.193
LU99A; first compound 2 µM
  relative viability: 0.175
LU99A; first compound 6.325 µM
  relative viability: 0.17
LU99A; first compound 20 µM
  relative viability: 0.16
NCI-H1355; first compound 0.2 µM
  relative viability: 1.05
NCI-H1355; first compound 0.6325 µM
  relative viability: 0.932
NCI-H1355; first compound 2 µM
  relative viability: 1.07
NCI-H1355; first compound 6.325 µM
  relative viability: 0.863
NCI-H1355; first compound 20 µM
  relative viability: 0.616
NCI-H2087; first compound 0.2 µM
  relative viability: 0.593
NCI-H2087; first compound 0.6325 µM
  relative viability: 0.724
NCI-H2087; first compound 2 µM
  relative viability: 0.729
NCI-H2087; first compound 6.325 µM
  relative viability: 0.601
NCI-H2087; first compound 20 µM
  relative viability: 0.644
NCI-H1993; first compound 0.2 µM
  relative viability: 0.572
NCI-H1993; first compound 0.6325 µM
  relative viability: 0.553
NCI-H1993; first compound 2 µM
  relative viability: 0.596
NCI-H1993; first compound 6.325 µM
  relative viability: 0.481
NCI-H1993; first compound 20 µM
  relative viability: 0.384
NCI-H2085; first compound 0.2 µM
  relative viability: 0.903
NCI-H2085; first compound 0.6325 µM
  relative viability: 0.873
NCI-H2085; first compound 2 µM
  relative viability: 0.885
NCI-H2085; first compound 6.325 µM
  relative viability: 0.777
NCI-H2085; first compound 20 µM
  relative viability: 0.833
